Tests used:
Assay type in all cases: in vivo
[1] = tested on: barnyardgrass (Echinochloa crus-galli); test: Test A preemergence soil spray, visual injury rating 0-100; conditions: 10 days
In short: (§1)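 Directed preemergence spray onto seeded soil or postemergence spray onto 2-10 cm plants (loam plus sand); compound carried in surfactant-containing non-phytotoxic solvent. Injury rated by eye after 10 d greenhouse growth; 0 = no effect, 100 = complete control.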

[2] = tested on: blackgrass (Alopecurus myosuroides); test: as above; conditions: 10 days
In short: as §1

corn (Zea mays) [3] = test: as above; conditions: 10 days
In short: as §1

[4] = tested on: green foxtail (Setaria viridis); test: as above; conditions: 10 days
In short: as §1

kochia (Bassia scoparia) [5] = test: as above; conditions: 10 days
In short: as §1

[6] = tested on: oat, wild (wild oat, Avena fatua); test: as above; conditions: 10 days
In short: as §1

[7] = tested on: palmer (palmer amaranth, palmer pigweed, Amaranthus palmeri); test: as above; conditions: 10 days
In short: as §1

[8] = tested on: ragweed (common ragweed, Ambrosia artemisiifolia); test: as above; conditions: 10 days
In short: as §1

[9] = tested on: ryegrass, Italian (italian ryegrass, Lolium multiflorum); test: as above; conditions: 10 days
In short: as §1

soybean (Glycine max) [10] = test: as above; conditions: 10 days
In short: as §1

[11] = tested on: wheat (Triticum aestivum); test: as above; conditions: 10 days
In short: as §1

[12] = tested on: barnyardgrass (Echinochloa crus-galli); test: Test A postemergence application, visual injury rating 0-100
In short: as §1

[13] = tested on: blackgrass (Alopecurus myosuroides); test: as above
In short: as §1

corn (Zea mays) [14] = test: as above
In short: as §1

[15] = tested on: galium (catchweed bedstraw, Galium aparine); test: as above
In short: as §1

[16] = tested on: green foxtail (Setaria viridis); test: as above
In short: as §1

[17] = tested on: horseweed (Erigeron canadensis); test: as above
In short: as §1

kochia (Bassia scoparia) [18] = test: as above
In short: as §1

[19] = tested on: oat, wild (wild oat, Avena fatua); test: as above
In short: as §1

[20] = tested on: palmer (palmer amaranth, palmer pigweed, Amaranthus palmeri); test: as above
In short: as §1

[21] = tested on: ragweed (common ragweed, Ambrosia artemisiifolia); test: as above
In short: as §1

[22] = tested on: ryegrass, Italian (italian ryegrass, Lolium multiflorum); test: as above
In short: as §1

soybean (Glycine max) [23] = test: as above
In short: as §1

[24] = tested on: wheat (Triticum aestivum); test: as above
In short: as §1

[25] = tested on: barnyardgrass (Echinochloa crusgalli); test: Test B flooded paddy test, visual plant response rating 0-100; conditions: 250 g ai/ha, Flood, applied to paddy water, evaluated after 13 days
In short: (§2)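 Treatment occurs at the 2-leaf stage by adding compound to floodwater standing 3 cm above the soil, a level kept for the whole test. Plants stay in the greenhouse 13 days before visual comparison with controls.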

[26] = tested on: ducksalad (Heteranthera limosa); test: as above; conditions: 250 g ai/ha, Flood, applied to paddy water, evaluated after 13 days
In short: as §2

rice (Oryza sativa) = test: as above; conditions: 250 g ai/ha, Flood, applied to paddy water, evaluated after 13 days
In short: as §2

[27] = tested on: sedge, umbrella (small-flower umbrella sedge, Cyperus difformis); test: as above; conditions: 250 g ai/ha, Flood, applied to paddy water, evaluated after 13 days
In short: as §2

[28] = 62 g ai/ha, 0 = no effect, 100 = complete control
[29] = 62 g ai/ha, postemergence, 10 days, 0 = no effect, 100 = complete control
[30] = Postemergence, 16 g ai/ha, greenhouse 10 days, 0 no effect, 100 complete control

## CC1(C(=O)NC2C=CC(C(=O)O)C2)CN(c2cc(F)cc(F)c2)C(=O)O1 (stereo not shown) [Compound 138]
[1]; 16 g ai/ha, 0 to 100 scale
  Barnyardgrass plant response rating: 60
[1]; [28]
  Barnyardgrass plant response rating (0-100): 100
[2]; 16 g ai/ha, 0 to 100 scale
  Blackgrass plant response rating: 40
[2]; [28]
  Blackgrass plant response rating (0-100): 70
Corn (Zea mays) [3]; 16 g ai/ha, 0 to 100 scale
  Corn plant response rating: 60
Corn (Zea mays) [3]; [28]
  Corn plant response rating (0-100): 90
[4]; 16 g ai/ha, 0 to 100 scale
  Foxtail, Green plant response rating: 20
[4]; [28]
  Foxtail, Green plant response rating (0-100): 90
Kochia (Bassia scoparia) [5]; 16 g ai/ha, 0 to 100 scale
  Kochia plant response rating: 90
Kochia (Bassia scoparia) [5]; [28]
  Kochia plant response rating (0-100): 90
[6]; 16 g ai/ha, 0 to 100 scale
  Oat, Wild plant response rating: 50
[6]; [28]
  Oat, Wild plant response rating (0-100): 90
[7]; 16 g ai/ha, 0 to 100 scale
  Pigweed, Palmer plant response rating: 30
[7]; [28]
  Pigweed, Palmer plant response rating (0-100): 90
[8]; 16 g ai/ha, 0 to 100 scale
  Ragweed plant response rating: 0
[8]; [28]
  Ragweed plant response rating (0-100): 40
[9]; 16 g ai/ha, 0 to 100 scale
  Ryegrass, Italian plant response rating: 70
[9]; [28]
  Ryegrass, Italian plant response rating (0-100): 90
Soybean (Glycine max) [10]; 16 g ai/ha, 0 to 100 scale
  Soybean plant response rating: 30
Soybean (Glycine max) [10]; [28]
  Soybean plant response rating (0-100): 80
[11]; 16 g ai/ha, 0 to 100 scale
  Wheat plant response rating: 50
[11]; [28]
  Wheat plant response rating (0-100): 90
[12]; [29]
  Barnyardgrass plant response rating (0-100): 80
[12]; [30]
  Barnyardgrass plant response rating (0 to 100 scale): 70
[13]; [29]
  Blackgrass plant response rating (0-100): 90
[13]; [30]
  Blackgrass plant response rating (0 to 100 scale): 70
Corn (Zea mays) [14]; [29]
  Corn plant response rating (0-100): 100
Corn (Zea mays) [14]; [30]
  Corn plant response rating (0 to 100 scale): 100
[15]; [29]
  Galium plant response rating (0-100): 90
[15]; [30]
  Galium plant response rating (0 to 100 scale): 90
[16]; [29]
  Foxtail, Green plant response rating (0-100): 90
[16]; [30]
  Foxtail, Green plant response rating (0 to 100 scale): 80
[17]; [29]
  Horseweed plant response rating (0-100): 80
[17]; [30]
  Horseweed plant response rating (0 to 100 scale): 50
Kochia (Bassia scoparia) [18]; [29]
  Kochia plant response rating (0-100): 80
Kochia (Bassia scoparia) [18]; [30]
  Kochia plant response rating (0 to 100 scale): 80
[19]; [29]
  Oat, Wild plant response rating (0-100): 90
[19]; [30]
  Oat, Wild plant response rating (0 to 100 scale): 90
[20]; [29]
  Pigweed, Palmer plant response rating (0-100): 90
[20]; [30]
  Pigweed, Palmer plant response rating (0 to 100 scale): 90
[21]; [29]
  Ragweed plant response rating (0-100): 80
[21]; [30]
  Ragweed plant response rating (0 to 100 scale): 60
[22]; [29]
  Ryegrass, Italian plant response rating (0-100): 90
[22]; [30]
  Ryegrass, Italian plant response rating (0 to 100 scale): 60
Soybean (Glycine max) [23]; [29]
  Soybean plant response rating (0-100): 60
Soybean (Glycine max) [23]; [30]
  Soybean plant response rating (0 to 100 scale): 60
[24]; [29]
  Wheat plant response rating (0-100): 90
[24]; [30]
  Wheat plant response rating (0 to 100 scale): 90
[25]
  Plant response rating, Barnyardgrass (0 to 100 scale, 0 is no effect and 100 is complete control): 95
[26]
  Plant response rating, Ducksalad (0 to 100 scale, 0 is no effect and 100 is complete control): 100
Rice (Oryza sativa)
  Plant response rating, Rice (0 to 100 scale, 0 is no effect and 100 is complete control): 95
[27]
  Plant response rating, Sedge, Umbrella (0 to 100 scale, 0 is no effect and 100 is complete control): 95

— patent US20260285850A1, “SUBSTITUTED OXAZOLIDINONES AND IMIDAZOLINONES AS HERBICIDES” (FMC CORPORATION, priority 2023, published 2026)
